Test results from article PMC10064984, “Anti-cyclooxygenase, anti-glycation, and anti-skin aging effect of Dendrobium officinale flowers’ aqueous extract and its phytochemical validation in aging” (Frontiers in Immunology, 2023).
“And” between values parts separate entries of the source, which are not always exact repeats. Identical values can stand only once. Like-named read-outs stand apart in the source and are kept apart here.

Columns and labels:
Format in all cases: biochemical
COX-2 = target: T1, COX-2 (Homo sapiens, UniProt P35354); assay: Anti-COX-2 assay (COX-2 Inhibitor Screening Kit)
T1 construct: purchased Beyotime S0168
T1 sequence (P35354 18-604): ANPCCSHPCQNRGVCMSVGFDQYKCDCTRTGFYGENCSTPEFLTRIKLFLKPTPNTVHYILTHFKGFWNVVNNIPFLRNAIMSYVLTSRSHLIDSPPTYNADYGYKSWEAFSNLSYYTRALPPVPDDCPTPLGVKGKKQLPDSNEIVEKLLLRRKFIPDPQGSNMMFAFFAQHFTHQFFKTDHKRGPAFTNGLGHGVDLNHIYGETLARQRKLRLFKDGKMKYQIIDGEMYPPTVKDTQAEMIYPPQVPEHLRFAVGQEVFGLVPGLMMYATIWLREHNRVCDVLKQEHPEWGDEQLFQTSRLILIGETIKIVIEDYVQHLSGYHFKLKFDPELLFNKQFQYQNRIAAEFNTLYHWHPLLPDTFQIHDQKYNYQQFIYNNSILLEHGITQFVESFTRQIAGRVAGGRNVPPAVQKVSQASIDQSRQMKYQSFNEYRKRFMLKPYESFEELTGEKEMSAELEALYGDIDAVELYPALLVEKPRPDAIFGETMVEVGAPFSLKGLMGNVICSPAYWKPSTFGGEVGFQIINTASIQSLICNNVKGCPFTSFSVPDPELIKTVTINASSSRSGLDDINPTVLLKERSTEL

[1] = FRAP total antioxidant capacity;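 further: colourimetric FRAP kit assay read as absorbance in 96-well plates, values as mM FeSO4 via standard curve, EC1 being sample concentration matching 1.0 mmol/L FeSO4, Trolox positive control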
[2] = ABTS·+ decolourisation capacity; details: mean ± SD, n = 3
Method in brief: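 IC50 values were derived graphically from dose-inhibition curves, with % inhibition calculated versus a buffer-only (0.2 M phosphate, pH 7.4) control. Each sample (200 μl) reacted for 10 min with 100 μl ABTS·+ reagent pre-set to A729 0.8 ± 0.05, then absorbance at 729 nm was measured in triplicate.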

DPPH· scavenging = details: mean ± SD, n = 3
[3] = Fluorescent AGEs formation in a BSA-fructose/glucose system; details: for inhibition of fluorescent AGEs formation (BSA-抗糖化), single replicate: individual replicate; for inhibition of fluorescent AGEs formation (BSA-抗糖化), 平均 (mean): mean of 3 replicates; for IC50: mean ± SD, n = 3, read-out: BSA-glycation IC50
Method in brief: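 Fluorescent AGE inhibition was measured in triplicate, correcting sample and control fluorescence for BSA-free blanks. Glycation used BSA incubated with D-fructose and D-glucose, with samples dissolved in DMSO:water (1:4).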

[4] = lower part of sheet (compound series)

COc1cc(-c2oc3cc(O)cc(O)c3c(=O)c2OC2OC(CO)C(O)C(O)C2O)ccc1O (stereo not drawn) [compound 32, Isorhamnetin-3-O-glucoside]
inhibition at 31.25 µM (COX-2; 31.25 μM, single replicates): 5.99% | COX-2 inhibition (COX-2; 31.25 μM, single replicates, listed as T14, 31.25 µM): 4.35% | COX-2 inhibition (COX-2; 62.5 μM, single replicates, listed as T14, 62.5 µM): -8.14% and 8.77% and -5.55% | COX-2 inhibition (COX-2; 125 μM, single replicates, listed as T14, 125 µM): 16.41% and 9.67% and 1.80% | COX-2 inhibition (COX-2; 250 μM, single replicates, listed as T14, 250 µM): 18.89% and 38.58% and 20.11% | inhibition at 500 µM (COX-2; 500 μM, single replicates): 53.6% | COX-2 inhibition (COX-2; 500 μM, single replicates, listed as T14, 500 µM): 61.95% and 42.08% | inhibition at 1000 µM (COX-2; 1000 μM, single replicates): 77.5% | COX-2 inhibition (COX-2; 1000 μM, single replicates, listed as T14, 1000 µM): 79.82% and 70.09% | inhibition at 2000 µM (COX-2; 2000 μM (2mM), single replicates): 76.1% | COX-2 inhibition (COX-2; 2000 μM (2mM), single replicates, listed as T14): 78.14% and 68.80% | IC50 (COX-2; mean ± SD, n = 3, nd, not detected, read-out: COX-2 IC50): 535 ± 150 µM | IC50 (COX-2; supplement sheet COX, read-out: COX-2 IC50, single replicate): 515 µM and 396 µM and 694 µM | FRAP EC1 [1, 4]: 2757.3 ± 103.8 µM | FRAP EC1 ([1]; mean ± SD, n = 3): 2,757.3 ± 103.8 μM | IC50 [2]: 44.7 ± 1.52 µM | IC50 (DPPH· scavenging): 2370 µM | inhibition of fluorescent AGEs formation (BSA-抗糖化), single replicate ([3]; 15.625 µM, listed as T14, 15.625 µM): 6.47% and 9.81% and 6.23% | inhibition of fluorescent AGEs formation (BSA-抗糖化), 平均 (mean) ([3]; 15.625 µM): 7.50% | inhibition of fluorescent AGEs formation (BSA-抗糖化), single replicate ([3]; 31.25 µM, listed as T14, 31.25 µM): 13.37% and 12.51% and 13.56% | inhibition of fluorescent AGEs formation (BSA-抗糖化), 平均 (mean) ([3]; 31.25 µM): 13.15% | inhibition of fluorescent AGEs formation (BSA-抗糖化), single replicate ([3]; 62.5 µM, listed as T14, 62.5 µM): 22.22% and 24.18% and 24.11% | inhibition of fluorescent AGEs formation (BSA-抗糖化), 平均 (mean) ([3]; 62.5 µM): 23.51% | inhibition of fluorescent AGEs formation (BSA-抗糖化), single replicate ([3]; 125 µM, listed as T14, 125 µM): 35.72% and 35.84% and 36.17% | inhibition of fluorescent AGEs formation (BSA-抗糖化), 平均 (mean) ([3]; 125 µM): 35.91% | inhibition of fluorescent AGEs formation (BSA-抗糖化), single replicate ([3]; 250 µM, listed as T14, 250 µM): 54.28% and 53.83% and 54.39% | inhibition of fluorescent AGEs formation (BSA-抗糖化), 平均 (mean) ([3]; 250 µM): 54.17% | inhibition of fluorescent AGEs formation (BSA-抗糖化), single replicate ([3]; 500 µM, listed as T14, 500 µM): 70.40% and 70.98% and 71.44% | inhibition of fluorescent AGEs formation (BSA-抗糖化), 平均 (mean) ([3]; 500 µM): 70.94% | inhibition of fluorescent AGEs formation (BSA-抗糖化), single replicate ([3]; 1000 µM, listed as T14, 1000 µM): 83.59% and 83.42% and 83.56% | inhibition of fluorescent AGEs formation (BSA-抗糖化), 平均 (mean) ([3]; 1000 µM): 83.53% | inhibition of fluorescent AGEs formation (BSA-抗糖化), single replicate ([3]; 2000 µM, listed as T14, 2000 µM): 91.04% and 91.39% and 91.09% | inhibition of fluorescent AGEs formation (BSA-抗糖化), 平均 (mean) ([3]; 2000 µM): 91.17% | inhibition of fluorescent AGEs formation (BSA-抗糖化), single replicate ([3]; 4000 µM (series head 'T9 4000µM', 2-fold dilutions), listed as T14): 95.57% and 95.55% and 95.41% | inhibition of fluorescent AGEs formation (BSA-抗糖化), 平均 (mean) ([3]; 4000 µM): 95.51% | IC50 [3]: 209 ± 3.1 µM

Kaempferol-3-O-rutinoside [compound 28]
COX-2 inhibition (in words) (COX-2): no inhibitory effects | COX-2 inhibition (COX-2; 3.125 μM, single replicates, listed as T12, 3.125 µM): 24.76% and 3.80% | COX-2 inhibition (COX-2; 6.25 μM, single replicates, listed as T12, 6.25 µM): 9.88% and 6.40% and 22.14% | COX-2 inhibition (COX-2; 12.5 μM, single replicates, listed as T12, 12.5 µM): -1.05% and 3.59% and 13.88% | COX-2 inhibition (COX-2; 25 μM, single replicates, listed as T12, 25 µM): -5.04% and -8.91% and 26.95% | COX-2 inhibition (COX-2; 50 μM, single replicates, listed as T12, 50 µM): -2.18% and -5.56% and 1.52% | COX-2 inhibition (COX-2; 100 μM, single replicates, listed as T12, 100 µM): 7.51% and -46.40% and 2.25% | COX-2 inhibition (COX-2; 200 μM, single replicates, listed as T12, 200 µM): -9.13% and -25.75% and 1.42% | FRAP EC1 [1, 4]: >5000 µM | IC50 [2]: 35.01 ± 0.22 µM | IC50 (DPPH· scavenging): > 5000 µM | inhibition of fluorescent AGEs formation (BSA-抗糖化), single replicate ([3]; 15.625 µM, listed as T12, 15.625 µM): -0.31% and 7.28% and -2.72% | inhibition of fluorescent AGEs formation (BSA-抗糖化), 平均 (mean) ([3]; 15.625 µM): 1.41% | inhibition of fluorescent AGEs formation (BSA-抗糖化), single replicate ([3]; 31.25 µM, listed as T12, 31.25 µM): 6.95% and 5.50% and 2.44% | inhibition of fluorescent AGEs formation (BSA-抗糖化), 平均 (mean) ([3]; 31.25 µM): 4.96% | inhibition of fluorescent AGEs formation (BSA-抗糖化), single replicate ([3]; 62.5 µM, listed as T12, 62.5 µM): 13.47% and 13.89% and 14.50% | inhibition of fluorescent AGEs formation (BSA-抗糖化), 平均 (mean) ([3]; 62.5 µM): 13.95% | inhibition of fluorescent AGEs formation (BSA-抗糖化), single replicate ([3]; 125 µM, listed as T12, 125 µM): 22.45% and 28.29% and 22.60% | inhibition of fluorescent AGEs formation (BSA-抗糖化), 平均 (mean) ([3]; 125 µM): 24.45% | inhibition of fluorescent AGEs formation (BSA-抗糖化), single replicate ([3]; 250 µM, listed as T12, 250 µM): 38.13% and 38.77% and 37.66% | inhibition of fluorescent AGEs formation (BSA-抗糖化), 平均 (mean) ([3]; 250 µM): 38.19% | inhibition of fluorescent AGEs formation (BSA-抗糖化), single replicate ([3]; 500 µM, listed as T12, 500 µM): 58.09% and 57.21% and 56.73% | inhibition of fluorescent AGEs formation (BSA-抗糖化), 平均 (mean) ([3]; 500 µM): 57.34% | inhibition of fluorescent AGEs formation (BSA-抗糖化), single replicate ([3]; 1000 µM, listed as T12, 1000 µM): 74.99% and 76.95% and 73.93% | inhibition of fluorescent AGEs formation (BSA-抗糖化), 平均 (mean) ([3]; 1000 µM): 75.29% | inhibition of fluorescent AGEs formation (BSA-抗糖化), single replicate ([3]; 2000 µM, listed as T12, 2000 µM): 85.90% and 86.14% and 85.80% | inhibition of fluorescent AGEs formation (BSA-抗糖化), 平均 (mean) ([3]; 2000 µM): 85.95% | inhibition of fluorescent AGEs formation (BSA-抗糖化), single replicate ([3]; 4000 µM (series head 'T9 4000µM', 2-fold dilutions), listed as T12): 92.80% and 92.79% and 92.84% | inhibition of fluorescent AGEs formation (BSA-抗糖化), 平均 (mean) ([3]; 4000 µM): 92.81% | IC50 [3]: 374 ± 18.1 µM
